Source: patent publication US9353107B2 (Aurigene Discovery Technologies Limited, priority 2012, dated 2016)
Where a name gives a salt, the structure may show the parent alone. One block for each compound: values may come before it.

Target: T1, recombinant human ALK enzyme (ALK WT) (Homo sapiens, UniProt Q9UM73)
T1 construct: purchased Carna Biosciences 08-518
Assay: ALK WT cell free enzymatic assay (TR-FRET)
Type: biochemical
Details: 1 μM ATP; for IC50: 10 point dose response; for inhibition at 0.1 µM: compound at 100 nM; for inhibition at 0.1 µM / inhibition at 1 µM: 30 min pre-incubation; for inhibition at 1 µM: compound at 1 μM
How it was run: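 Recombinant human ALK with 40 nM Ultra Light Poly GT, 1 μM ATP and Eu anti-phosphotyrosine antibody, 1% DMSO, pH 7.1 HEPES; 30 min enzyme-compound pre-incubation, then 30 min reaction. TR-FRET 665/615 ratio; percent inhibition at 100 nM and 1 μM, IC50 from 10-point sigmoidal fit.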

T1 sequence (Q9UM73 1058-1620 limits assumed): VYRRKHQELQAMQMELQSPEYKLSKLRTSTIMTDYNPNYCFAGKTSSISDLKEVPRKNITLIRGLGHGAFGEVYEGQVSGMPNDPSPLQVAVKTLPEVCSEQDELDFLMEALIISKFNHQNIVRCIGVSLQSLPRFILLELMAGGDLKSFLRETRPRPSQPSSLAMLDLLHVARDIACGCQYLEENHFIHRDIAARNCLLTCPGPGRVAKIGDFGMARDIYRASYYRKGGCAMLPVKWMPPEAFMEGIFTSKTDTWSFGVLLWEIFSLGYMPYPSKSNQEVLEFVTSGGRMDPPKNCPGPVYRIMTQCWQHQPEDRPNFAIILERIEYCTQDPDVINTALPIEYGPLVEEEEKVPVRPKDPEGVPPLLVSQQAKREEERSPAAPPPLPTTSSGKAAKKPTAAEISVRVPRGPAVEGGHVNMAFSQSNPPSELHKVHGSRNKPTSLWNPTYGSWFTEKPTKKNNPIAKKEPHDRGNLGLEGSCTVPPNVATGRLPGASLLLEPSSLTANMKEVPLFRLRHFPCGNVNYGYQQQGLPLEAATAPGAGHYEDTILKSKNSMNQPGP

SMILES: COc1ncc(-c2cnc3[nH]cc(-c4cnn(Cc5cccc(F)c5)c4)c3c2)cc1NS(C)(=O)=O [Example 67, N-(5-(3-(1-(3-fluorobenzyl)-1H-pyrazol-4-yl)-1H-pyrrolo[2,3-b]pyridin-5-yl)-2-methoxypyridin-3-yl)methanesulfonamide]
IC50: < 50 nM | inhibition at 0.1 µM: 98% | inhibition at 1 µM: 100%

SMILES: c1cncc(Cn2cc(-c3c[nH]c4ncc(-c5ccc(N6CCNCC6)cc5)cc34)cn2)c1 [Example 131, 5-(4-(piperazin-1-yl)phenyl)-3-(1-(pyridin-3-ylmethyl)-1H-pyrazol-4-yl)-1H-pyrrolo[2,3-b]pyridine]
IC50: < 50 nM | inhibition at 0.1 µM: 83% | inhibition at 1 µM: 99%

SMILES: COc1cc(-c2cnc3[nH]cc(-c4cnn(Cc5cccc(F)c5)c4)c3c2)ccc1N1CCN(C[C@H](C)O)CC1 [Example 112, (S)-1-(4-(4-(3-(1-(3-fluorobenzyl)-1H-pyrazol-4-yl)-1H-pyrrolo[2,3-b]pyridin-5-yl)-2-methoxyphenyl)piperazin-1-yl)propan-2-ol]
inhibition at 0.1 µM: 90% | inhibition at 1 µM: 100%

SMILES: Cc1nn(Cc2cccc(F)c2)c(C)c1-c1c[nH]c2ncc(-c3ccc(N4CCOCC4)cc3)cc12 [Example 45, 4-(4-(3-(1-(3-fluorobenzyl)-3,5-dimethyl-1H-pyrazol-4-yl)-1H-pyrrolo[2,3-b]pyridin-5-yl)phenyl) morpholine]
IC50: 50 to 250 nM | inhibition at 0.1 µM: 51% | inhibition at 1 µM: 80%

SMILES: c1ccc(CCn2cc(-c3c[nH]c4ncc(-c5cccc(OC6CCNCC6)c5)cc34)cn2)cc1 [Example 97, 3-(1-phenethyl-1H-pyrazol-4-yl)-5-(3-(piperidin-4-yloxy)phenyl)-1H-pyrrolo[2,3-b]pyridine]
IC50: < 50 nM | inhibition at 0.1 µM: 76% | inhibition at 1 µM: 98%

SMILES: CS(=O)(=O)Nc1cccc(-c2cnc3[nH]cc(-c4cnn(Cc5cccc(C(F)(F)F)c5)c4)c3c2)c1 [Example 2, N-(3-(3-(1-(3-(trifluoromethyl)benzyl)-1H-pyrazol-4-yl)-1H-pyrrolo[2,3-b]pyridin-5-yl)phenyl) methanesulfonamide]
IC50: > 250 nM | inhibition at 1 µM: 33%

SMILES: Fc1ccc(F)c(Cn2cc(-c3c[nH]c4ncc(-c5cccc(N6CCNCC6)c5)cc34)cn2)c1 [Example 32, 3-(1-(2,5-difluorobenzyl)-1H-pyrazol-4-yl)-5-(3-(piperazin-1-yl)phenyl)-1H-pyrrolo[2,3-b]pyridine]
IC50: < 50 nM | inhibition at 1 µM: 99%

SMILES: COc1ccc(-c2cc3c(-c4c(C)nn(Cc5cccc(F)c5)c4C)c[nH]c3nc2C2CC2)cc1NS(C)(=O)=O [Example 28, N-(5-(6-cyclopropyl-3-(1-(3-fluorobenzyl)-3,5-dimethyl-1H-pyrazol-4-yl)-1H-pyrrolo[2,3-b]pyridin-5-yl)-2-methoxyphenyl)methanesulfonamide]
inhibition at 0.1 µM: 14% | inhibition at 1 µM: 49%

SMILES: CNS(=O)(=O)c1cc(-c2cnc3[nH]cc(-c4c(C)nn(Cc5cc(F)cc(F)c5)c4C)c3c2)ccc1OC [Example 21, (3-(1-(3,5-difluorobenzyl)-3,5-dimethyl-1H-pyrazol-4-yl)-1H-pyrrolo[2,3-b]pyridin-5-yl)-2-methoxy-N-methylbenzenesulfonamide]
IC50: < 50 nM | inhibition at 0.1 µM: 82% | inhibition at 1 µM: 96%

SMILES: C[C@H](O)CN1CCC(c2ccc(-c3cnc4[nH]cc(-c5cnn(Cc6cccc(F)c6)c5)c4c3)cn2)CC1 [Example 102A, (S)-1-(4-(5-(3-(1-(3-fluorobenzyl)-1H-pyrazol-4-yl)-1H-pyrrolo[2,3-b]pyridin-5-yl)pyridin-2-yl)piperidin-1-yl)propan-2-ol]
IC50: < 50 nM | inhibition at 0.1 µM: 91% | inhibition at 1 µM: 94%

SMILES: Cc1nn(Cc2cccc(F)c2)c(C)c1-c1c[nH]c2ncc(-c3ccc(N4CCN(C)CC4)cc3)cc12 [Example 56, 3-(1-(3-fluorobenzyl)-3,5-dimethyl-1H-pyrazol-4-yl)-5-(4-(4-methylpiperazin-1-yl)phenyl)-1H pyrrolo[2,3-b]pyridine]
IC50: < 50 nM | inhibition at 0.1 µM: 91% | inhibition at 1 µM: 100%

SMILES: CC(C)N1CCN(c2cccc(-c3cnc4[nH]cc(-c5cnn(Cc6cccc(F)c6)c5)c4c3)c2)CC1 [Example 35, 3-(1-(3-fluorobenzyl)-1H-pyrazol-4-yl)-5-(3-(4-isopropylpiperazin-1-yl)phenyl)-1H-pyrrolo[2,3-b]pyridine]
IC50: < 50 nM | inhibition at 0.1 µM: 98% | inhibition at 1 µM: 99%

SMILES: N#CCCN1CCN(c2cccc(-c3cnc4[nH]cc(-c5cnn(Cc6cccc(F)c6)c5)c4c3)c2)CC1 [Example 34, 3-(4-(3-(3-(1-(3-fluorobenzyl)-1H-pyrazol-4-yl)-1H-pyrrolo[2,3-b]pyridin-5-yl)phenyl)piperazin-1-yl) propanenitrile]
IC50: < 50 nM | inhibition at 0.1 µM: 91% | inhibition at 1 µM: 99%

SMILES: CS(=O)(=O)Nc1cccc(-c2cnc3[nH]cc(-c4cnn(Cc5cccc([N+](=O)[O-])c5)c4)c3c2)c1 [Example 7, N-(3-(3-(1-(3-nitrobenzyl)-1H-pyrazol-4-yl)-1H-pyrrolo[2,3-b]pyridin-5-yl)phenyl)methane sulfonamide]
inhibition at 0.1 µM: 20% | inhibition at 1 µM: 53%

SMILES: Cc1nn(Cc2cccc(F)c2)c(C)c1-c1c[nH]c2ncc(-c3ccc(N4CCNCC4)cc3)cc12 [Example 40, 3-(1-(3-fluorobenzyl)-3,5-dimethyl-1H-pyrazol-4-yl)-5-(4-(piperazin-1-yl)phenyl)-1H-pyrrolo[2,3-b]pyridine hydrochloride]
IC50: < 50 nM | inhibition at 0.1 µM: 94% | inhibition at 1 µM: 100%

SMILES: CN1CCN(c2cccc(-c3cnc4[nH]cc(-c5cnn(Cc6cccc(F)c6)c5)c4c3)c2)CC1 [Example 36, 3-(1-(3-fluorobenzyl)-1H-pyrazol-4-yl)-5-(3-(4-methylpiperazin-1-yl)phenyl)-1H-pyrrolo[2,3-b]pyridine]
IC50: < 50 nM | inhibition at 0.1 µM: 96% | inhibition at 1 µM: 99%

SMILES: CN1CCC(c2ccc(-c3cnc4[nH]cc(-c5cnn(Cc6cccc(F)c6)c5)c4c3)cc2)CC1 [Example 83, 3-(1-(3-fluorobenzyl)-1H-pyrazol-4-yl)-5-(4-(1-methylpiperidin-4-yl)phenyl)-1H-pyrrolo[2,3-b]pyridine]
IC50: < 50 nM | inhibition at 0.1 µM: 96% | inhibition at 1 µM: 100%

SMILES: Cc1cccc(Cn2cc(-c3c[nH]c4ncc(-c5ccc(C6CCNCC6)cc5)cc34)cn2)c1 [Example 85, 3-(1-(3-methylbenzyl)-1H-pyrazol-4-yl)-5-(4-(piperidin-4-yl)phenyl)-1H-pyrrolo[2,3-b]pyridine]
IC50: < 50 nM | inhibition at 0.1 µM: 95% | inhibition at 1 µM: 100%

Other lines, results leading:

IC50: < 50 nM | inhibition at 0.1 µM: 100% | inhibition at 1 µM: 100%
SMILES: C[C@H](O)CN1CCN(c2ccc(-c3cnc4[nH]cc(-c5cnn(Cc6cccc(F)c6)c5)c4c3)cn2)CC1 [Example 138, (S)-1-(4-(5-(3-(1-(3-fluorobenzyl)-1H-pyrazol-4-yl)-1H-pyrrolo[2,3-b]pyridin-5-yl)pyridin-2-yl)piperazin-1-yl)propan-2-ol]

IC50: < 50 nM | inhibition at 0.1 µM: 99% | inhibition at 1 µM: 100%
SMILES: Fc1cccc(Cn2cc(-c3c[nH]c4ncc(-c5ccc(N6CCNCC6)c(F)c5)cc34)cn2)c1 [Example 172, 5-(3-fluoro-4-(piperazin-1-yl)phenyl)-3-(1-(3-fluorobenzyl)-1H-pyrazol-4-yl)-1H-pyrrolo[2,3-b]pyridine]

IC50: < 50 nM | inhibition at 0.1 µM: 97% | inhibition at 1 µM: 100%
SMILES: CN1CCN(c2ccc(-c3cnc4[nH]cc(-c5cnn(Cc6cc(F)cc(F)c6)c5)c4c3)cn2)CC1 [Example 133, 3-(1-(3,5-difluorobenzyl)-1H-pyrazol-4-yl)-5-(6-(4-methylpiperazin-1-yl)pyridin-3-yl)-1H-pyrrolo[2,3-b]pyridine]

IC50: < 50 nM | inhibition at 0.1 µM: 93% | inhibition at 1 µM: 100%
SMILES: C[C@H](O)CN1CCN(c2ccc(-c3cnc4[nH]cc(-c5cnn(Cc6cccc(Cl)c6)c5)c4c3)cn2)CC1 [Example 153, (S)-1-(4-(5-(3-(1-(3-chlorobenzyl)-1H-pyrazol-4-yl)-1H-pyrrolo[2,3-b]pyridin-5-yl)pyridin-2-yl)piperazin-1-yl)propan-2-ol]

IC50: < 50 nM | inhibition at 0.1 µM: 94% | inhibition at 1 µM: 100%
SMILES: COc1cc(-c2cnc3[nH]cc(-c4c(C)nn(Cc5cccc(F)c5)c4C)c3c2)cnc1N [Example 178, 5-(3-(1-(3-fluorobenzyl)-3,5-dimethyl-1H-pyrazol-4-yl)-1H-pyrrolo[2,3-b]pyridin-5-yl)-3-methoxypyridin-2-amine]

IC50: < 50 nM | inhibition at 0.1 µM: 100% | inhibition at 1 µM: 100%
SMILES: Fc1cccc(Cn2cc(-c3c[nH]c4ncc(-c5ccc(N6CCNCC6)nc5)cc34)cn2)c1 [Example 132, 3-(1-(3-fluorobenzyl)-1H-pyrazol-4-yl)-5-(6-(piperazin-1-yl)pyridin-3-yl)-1H-pyrrolo[2,3-b]pyridine]

IC50: < 50 nM | inhibition at 0.1 µM: 99% | inhibition at 1 µM: 100%
SMILES: NC(=O)CN1CCN(c2ccc(-c3cnc4[nH]cc(-c5cnn(Cc6cccc(F)c6)c5)c4c3)cn2)CC1 [Example 139, 2-(4-(5-(3-(1-(3-fluorobenzyl)-1H-pyrazol-4-yl)-1H-pyrrolo[2,3-b]pyridin-5-yl)pyridin-2-yl)piperazin-1-yl)acetamide]

IC50: < 50 nM | inhibition at 0.1 µM: 99% | inhibition at 1 µM: 100%
SMILES: CN(C)CC(=O)N1CCN(c2ccc(-c3cnc4[nH]cc(-c5cnn(Cc6cccc(F)c6)c5)c4c3)cn2)CC1 [Example 147, 2-(dimethylamino)-1-(4-(5-(3-(1-(3-fluorobenzyl)-1H-pyrazol-4-yl)-1H-pyrrolo[2,3-b]pyridin-5-yl)pyridin-2-yl)piperazin-1-yl)ethanone]
